Measured values reported in US20170304228A1, “NEW INDICATION OF CINACALCET HCL PHARMACEUTICAL COMPOSITION FOR TREATING CANCER” (LAUNX BIOMEDICAL CO., LTD., priority 2014, published 2017).
Where “and” joins values, the source holds several entries; their conditions need not be identical. Identical values can stand only once. Counter-ions that a name gives are not always drawn. Like-named read-outs stand apart in the source and are kept apart here.

Experiments:
[1] = tested on: A549; test: Cell viability analysis (WST-1), A549; format: cell-based; settings: Homo sapiens, read-out: survival rate (viability) of cells
Procedure: (§1) The cell numbers were counted and reseed as 2×10^6 in culture plate/flask. Then, the culture medium were added to a volume of 10 ml, and the cells were cultured for 2-3 days. Then, the cells were suspended for loading into 96-well plates. The number of cells was 3000 and the volume of the culture medium was 100 μl each well.
(§2) Removing the original culture medium from 96-well plate. Then add 100 μl of commercially drug at a concentration of 10 μM per well. After 72 hours, add the diluted WST-1 reagent to the well with 100 μl/well, and the diluted WST-1 reagent was acquired from the dilution of 9:1 medium and WST-1 stock reagent. Finally, the total volume of each well was 200 μl/well. Culture the 96-well plate at 37° C. for 30 to 90 minutes. Detecting and calculate the survival rate of each cancer cells with an ELISA reader at OD450 nm. The lower viability of cancer cells represents better inhibition effect via the Cinacalcet HCl drug. Otherwise, the higher viability of cancer cells represents worse inhibition effect via the Cinacalcet HCl drug.
This inhibition test of Cinacalcet HCl on pleural-related cancer cells were using two lung cancer cell lines A549 and H1650. The inhibitory tests of Cinacalcet HCl were performed 4 times for each cell lines and then the average value of the inhibitory tests was calculated.

[2] = tested on: LNCap; test: Cell viability analysis (WST-1), LNCap; format: cell-based; settings: Homo sapiens, 72 hours, Average of tests, read-out: survival rate (viability) of cells
Procedure: as §1
as §2, with “Otherwise, the higher viability of cancer cells represents worse inhibition effect via the Cinacalcet HCl drug.” left out
(§3) This inhibition test of Cinacalcet HCl on endocrine-related cancer cells were using prostate cancer cell lines PC-3 and LNCap (Table 6), breast cancer cell lines MCF7 and MDA-MB-231 (Table 7), and ovarian cancer cell lines NIH-OVCAR-3 and TOV-21G (Table 8). The inhibitory tests of Cinacalcet HCl were performed 4 times for each cell lines and then the average value of the inhibitory tests was calculated.

[3] = tested on: MCF7; test: Cell viability analysis (WST-1), MCF7; format: cell-based; settings: Homo sapiens, read-out: survival rate (viability) of cells
Procedure: as §1, §2, §3

[4] = tested on: MDA-MB-231; test: Cell viability analysis (WST-1), MDA-MB-231; format: cell-based; settings: Homo sapiens, read-out: survival rate (viability) of cells
Procedure: as §1, §2, §3

[5] = tested on: HepG2; test: Cell viability analysis (WST-1), HepG2; format: cell-based; settings: Homo sapiens, read-out: survival rate (viability) of cells
Procedure: as §1, §2
(§4) This inhibition test of Cinacalcet HCl on gastrointestinal tract-related cancer cells were using gastric cancer cell lines AGS and MKN-45 (Table 9), hepatic cancer cell lines HepG2 and Hep3B (Table 10), colorectal cancer cell lines HCT116-wt and LoVo (Table 11), pancreatic cancer cell line AsPC-1 and BxPC-3(Table 12), tongue cancer cell line SAS (Table 13). The inhibitory tests of Cinacalcet HCl were performed 4 times for each cell lines and then the average value of the inhibitory tests was calculated.

[6] = tested on: HCT116-wt; test: Cell viability analysis (WST-1), HCT116-wt; format: cell-based; settings: read-out: survival rate (viability) of cells
Procedure: as §1, §2, §4

[7] = Cell viability analysis (WST-1), normal kidney cell line HEK293; format: cell-based; settings: human, HEK293 cells (normal kidney cell line)
Procedure: as §1
as §2, with “Otherwise, the higher viability of cancer cells represents worse inhibition effect via the Cinacalcet HCl drug.” left out
This inhibition test of Cinacalcet HCl on normal cells were using normal kidney cell line HEK293 (Table 16), normal pulmonary epithelial cell lines […] BEAS-2B (Table 17). The inhibitory tests of Cinacalcet HCl were performed 4 times for each cell lines and then the average value of the inhibitory tests was calculated The results were shown in Tables 16 and Tables 17.

[8] = tested on: colorectal cancer cells; test: Summary of cell viability, colorectal cancer cells; format: cell-based; settings: 72 hours, read-out: Inhibitory effect
Procedure: as §1, §2
(§5) Cinacalcet HCl is having different inhibitory effect on different tumor cell type even in the same cancer. […] (FIG. 1)

[9] = tested on: pancreatic cancer cells; test: Summary of cell viability, pancreatic cancer cells; format: cell-based; settings: 72 hours, read-out: Inhibitory effect
Procedure: as §1, §2, §5

[10] = tested on: gastric cancer cells (AGS); test: Animal model test of gastric cancer, tumor size; format: in vivo, mice
Procedure: In this invention, the female mice were(BALB/cAnN.Cg-Foxnl™/CrlNarl) and purchased from National Laboratory Animal Center (Taiwan). The weight of the mice were 21±1 g. These mice were subcutaneously injected with gastric cancer cells (AGS) and then put these mice into different cages at random. The drug test experiment was divided into three groups, include “control group”, “low dose group (100 mg/kg/day)”, “high dose group (200 mg/kg/day)”. These mice were then injected test drug intraperitoneally once daily […]. The tumor sizes and body weight were measured twice a week. The tumor sizes were measured and calculated by formula: (L×W^2)/2. L represents the tumor longest length. W represents the tumor shortest diameter.

[11] = Low dose (100 mg/kg/day) intraperitoneally, First measurement, average
[12] = Low dose (100 mg/kg/day) intraperitoneally, First measurement, single mice A, B, C, hydrochloride, 100 mg/kg/day
[13] = Low dose (100 mg/kg/day) intraperitoneally, Fourth measurement, average
[14] = Low dose (100 mg/kg/day) intraperitoneally, Fourth measurement, single mice A, B, C, hydrochloride, 100 mg/kg/day
[15] = Low dose (100 mg/kg/day) intraperitoneally, Second measurement, average
[16] = Low dose (100 mg/kg/day) intraperitoneally, Second measurement, single mice A, B, C, hydrochloride, 100 mg/kg/day
[17] = Low dose (100 mg/kg/day) intraperitoneally, Third measurement, average
[18] = both low dose and high dose, FIG. 3
[19] = high dose (200 mg/kg/day) intraperitoneally, First measurement, average
[20] = high dose (200 mg/kg/day) intraperitoneally, First measurement, single mice A, B, C, hydrochloride, 200 mg/kg/day
[21] = high dose (200 mg/kg/day) intraperitoneally, Fourth measurement, average
[22] = high dose (200 mg/kg/day) intraperitoneally, Second measurement, average
[23] = high dose (200 mg/kg/day) intraperitoneally, Second measurement, single mice A, B, C, hydrochloride, 200 mg/kg/day
[24] = high dose (200 mg/kg/day) intraperitoneally, Third measurement, average
[25] = high dose (200 mg/kg/day) intraperitoneally, Third measurement, single mice A, B, C, hydrochloride, 200 mg/kg/day

Compound: C[C@@H](NCCCc1cccc(C(F)(F)F)c1)c1cccc2ccccc12 [Cinacalcet HCl, Cinacalcet hydrochloride]
- viability at 10 µM ([1]; A549, 10 μM, 72 hours, test 0524-10 min): 87.7%
- viability at 10 µM ([1]; A549, 10 μM, 72 hours, test 0526-10 min): 103%
- viability at 10 µM ([1]; A549, 10 μM, 72 hours, test 0529-10 min): 75.5%
- viability at 10 µM ([1]; A549, 10 μM, 72 hours, test 0531-10 min): 92.6%
- viability at 10 µM ([1]; A549, 72 h, 10 μM, Average of tests): 89.6%
- viability at 10 µM [2]: 52.6%
- viability at 10 µM ([3]; MCF7, 10 μM, 72 hours, test 0612-10 min): 87.7%
- viability at 10 µM ([3]; MCF7, 10 μM, 72 hours, test 0614-10 min): 75.6%
- viability at 10 µM ([3]; MCF7, 10 μM, 72 hours, test 0616-10 min): 82.2%
- viability at 10 µM ([3]; MCF7, 10 μM, 72 hours, test 0619-10 min): 77.2%
- viability at 10 µM ([3]; MCF7, 72 h, 10 μM, average of tests): 80.7%
- viability at 10 µM ([4]; MDA-MB-231, 10 μM, 72 hours, test 0612-10 min): 92.3%
- viability at 10 µM ([4]; MDA-MB-231, 10 μM, 72 hours, test 0614-10 min): 84.9%
- viability at 10 µM ([4]; MDA-MB-231, 10 μM, 72 hours, test 0616-10 min): 60.8%
- viability at 10 µM ([4]; MDA-MB-231, 10 μM, 72 hours, test 0619-10 min): 92.8%
- viability at 10 µM ([4]; MDA-MB-231, 72 h, 10 μM, average of tests): 82.7%
- viability at 10 µM ([5]; HepG2, 10 μM, 72 hours, test 0524-20 min): 106%
- viability at 10 µM ([5]; HepG2, 10 μM, 72 hours, test 0526-20 min): 133%
- viability at 10 µM ([5]; HepG2, 10 μM, 72 hours, test 0529-20 min): 116%
- viability at 10 µM ([5]; HepG2, 10 μM, 72 hours, test 0531-20 min): 89.5%
- viability at 10 µM ([5]; HepG2, 72 h, 10 μM, average of tests): 111%
- viability at 10 µM ([6]; 72 h, average of tests): 110%
- viability at 10 µM ([6]; 72 hours, test 0602-30 min): 89%
- viability at 10 µM ([6]; 72 hours, test 0605-10 min): 107%
- viability at 10 µM ([6]; 72 hours, test 0607-10 min): 132%
- viability at 10 µM ([6]; 72 hours, test 0609-10 min): 113%
- viability at 72 h, 10 µM ([7]; average of tests, read-out: survival rate (viability) of cells): 114%
- viability at 72 h, 10 µM ([7]; summary, kidney cell lines, read-out: Inhibitory effect): 114%
- viability at 10 µM [8]: 74.4%
- viability at 10 µM [9]: 82.4%
- tumor volume [10, 11]: 592 mm3
- tumor volume growth [10, 11]: 592 mm3
- tumor longest length [10, 12]: 11 mm and 13 mm and 14 mm
- tumor width [10, 12]: 8 mm and 12 mm
- tumor volume [10, 13]: 562.1667 mm3
- tumor volume growth [10, 13]: −240.3333 mm3
- tumor longest length [10, 14]: 10 mm and 14 mm and 13 mm
- tumor width [10, 14]: 7 mm and 13 mm
- tumor volume [10, 15]: 277.5 mm3
- tumor volume growth [10, 15]: −314.5 mm3
- tumor longest length [10, 16]: 8 mm and 16 mm and 9 mm
- tumor width [10, 16]: 5 mm and 8 mm and 7 mm
- tumor volume [10, 17]: 802.5 mm3
- tumor volume growth [10, 17]: 525 mm3
- inhibition effect on tumor cells ([10]; both low dose and high dose, FIG. 2): significant inhibition effect
- tumor volume [10, 18]: can also reduce the tumor volume
- tumor volume growth [10, 18]: effectively slow down the tumor volume growth
- tumor volume [10, 19]: 81.17 mm3
- tumor volume growth [10, 19]: 81.17 mm3
- tumor longest length [10, 20]: 7 mm and 6 mm
- tumor width [10, 20]: 5 mm and 6 mm and 4 mm
- tumor volume [10, 21]: 22.33 mm3
- tumor volume growth [10, 21]: −56.8333 mm3
- tumor volume [10, 22]: 131.1667 mm3
- tumor volume growth [10, 22]: 50 mm3
- tumor longest length [10, 23]: 7 mm and 6 mm
- tumor width [10, 23]: 7 mm and 5 mm
- tumor volume [10, 24]: 79.17 mm3
- tumor volume growth [10, 24]: −52 mm3
- tumor width ([10]; high dose (200 mg/kg/day) intraperitoneally, Third measurement, single mice A, B, C): 5 mm
- tumor longest length [10, 25]: 7 mm and 6 mm
- tumor volume [10, 25]: 87.5 mm3 and 75 mm3
- inhibition of tumor growth, high doses compared with low dose ([10]; high doses, FIG. 3): better effect to inhibit tumor growth
